# Measured values as given in patent US20070010671A1, “Novel quinazoline derivatives and methods of treatment related to the use thereof” (priority 2003, published 2007).
# Target: MCH receptor (Homo sapiens, UniProt Q99705)
# Test: High throughput functional screening FLIPR/FDSS6000: inhibition of MCH-evoked intracellular Ca2+ changes
# Type: cell-based
# Settings: class by percent of control at 10^-7 M or by IC50; read-out: class
# Excerpt: Subsequently, a functional based assay was used to confirm the lead hits, referred to as FLIPR™ (the Fluorometric Imaging Plate Reader) and FDSS6000™ (Functional Drug Screening System). This assay utilized 3 non-endozenous, constitutively active version of the MCH receptor.
# The FLIPR and FDSS assays are able to detect intracellular Ca^2+ concentration in cells, which can be utilized to assess receptor activation and determine whether a candidate compound is an, for example, antagonist, inverse agonist or agonist to a Gq-coupled receptor. The concentration of free Ca^2+ in the cytosol of any cell is extremely low, whereas its concentration in the extracellular fluid and endoplasmic reticulum (ER) is very high. Thus, there is a large gradient tending to drive Ca^2+ into the cytosol across both the plasma membrane and ER. The FLIPR™ and FDSS6000™ systems (Molecular Devices Corporation, HAMAMATSU Photonics K.K.) are designed to perform functional cell-based assays, such as the measurement of intracellular calcium for high-throughput screening, The measurement of fluorescent is associated with calcium release upon activation of the Gq-coupled receptors.
# Fluorometric Imaging Plate Reader system was used to allow for rapid, kinetic measurements of intracellular fluorescence in 96 well microplates (or 384 well microplates). Simultaneous measurements of fluorescence in all wells can be made by FLIPR or FDSS6000™ every second with high sensitivity and precision. These systems are ideal for measuring cell-based functional assays such as monitoring the intracellular calcium fluxes that occur within seconds after activation of the Gq coupled receptor.
# Briefly, the cells are seeded into 96 well at 5.5×10^4 cells/well with complete culture media (Dulbecco's Modified Eagle Medium with 10% fetal bovine serum, 2 mMi L-glutamine, 1 mM sodium pyruvate and 0.5 mg/ml G418, pH 7.4) for the assay next day. On the day of assay, the media is removed and the cells are incubated with 100 μl of loading buffer (4 μM Fluo4-AM in complete culture media containing 2.5 mM Probenicid, 0.5 mg/ml and 0.2% bovine serum albumin) in 5% CO2 incubator at 37° C. for 1 hr. The loading buffer is removed, and the cells are washed with wash buffer (Hank's Balanced Salt Solution containing 2.5 mM Probenicid, 20 mM HEPES, 0.5 mg/ml and 0.2% bovine serum albumm, pH 7.4)). One hundred fifty μl of wash buffer containing various concentrations of test compound is added to the cells, and the cells are incubated in 5% CO2 incubator at 37° C. for 3 min. Fifty μl of wash buffer containing various concentration of MCH are added to each well, and transient changes in [Ca^2+]i evokled bee MCH are monoitored using the FLIPR, or FDSS in 96 shell plates at Ex. 488 nm and Em. 530 nm for 290 second. When antagonist activity of compound is tested, 50 nM of MCH is used.
# Use of FLIPR™ and FDSS6000™ can be accomplished by following manufacturer's instruction (Molecular Device Corporation and HAMAMATSU Photonics K.K.).
row,Compound,IC50
1,CN(C)c1nc(N[C@H]2CC[C@@H](NC(=O)NC34CC5CC(CC(C5)C3)C4)CC2)nc2ccccc12 (relative stereo) [compound 5],> 200 nM
2,"COC(=O)[C@H](CCSC)NC(=O)N[C@H]1CC[C@@H](Nc2nc(N(C)C)c3ccccc3n2)CC1 (relative stereo) [compound 41, methyl N-{[(cis-4-{[4-(dimethylamino)quinazolin-2-yl]amino}cyclohexyl)amino]carbonyl}methioninate]",< 50 nM
3,"COC(=O)[C@H](Cc1ccccc1)NC(=O)N[C@H]1CC[C@@H](Nc2nc(N(C)C)c3ccccc3n2)CC1 (relative stereo) [compound 62, methyl N-{[(cis-4-{[4-(dimethylamino)quinazolin-2-yl]amino}cyclohexyl)amino]carbonyl}phenylalaninate]",< 50 nM
4,"CC(NC(=O)N[C@H]1CC[C@@H](Nc2nc(N(C)C)c3ccccc3n2)CC1)c1ccccc1 (relative stereo) [compound 65, N-(cis-4-{[4-(dimethylamino)quinazolin-2-yl]amino}cyclohexyl)-N′-(1-phenylethyl)urea]",< 50 nM
5,CC(NC(=O)N[C@H]1CC[C@@H](Nc2nc(N(C)C)c3ccccc3n2)CC1)c1ccc(Br)cc1 (relative stereo) [compound 151],< 50 nM
6,CN(C)c1nc(N[C@H]2CC[C@@H](NC(=S)NCC3CCCO3)CC2)nc2ccccc12 (relative stereo) [compound 196],> 200 nM

# Same assay, conditions: class by percent of control at 10^−7 M or by IC50; read-out: class
row,Compound,IC50
1,"CN(C)c1nc(N[C@H]2CC[C@@H](CNC(=O)C(O)c3ccc(F)c(F)c3)CC2)nc2ccccc12 (relative stereo) [Example 1095, 2-(3,4-difluorophenyl)-N-[(cis-4-{[4-(dimethylamino)quinazolin-2-yl]amino}cyclohexyl)methyl]-2-hydroxyacetamide]",> 200 nM
2,"CN(C)c1nc(N[C@H]2CC[C@@H](CNC(=O)C(O)c3ccc(Br)cc3)CC2)nc2ccccc12 (relative stereo) [Example 1098, 2-(4-bromophenyl)-N-[(cis-4-{[4-(dimethylamino)quinazolin-2-yl]amino}cyclohexyl)methyl]-2-hydroxyacetamide]",> 200 nM
3,"CN(C)c1nc(N[C@H]2CC[C@@H](CNC(=O)C(O)c3ccc(Cl)cc3)CC2)nc2ccccc12 (relative stereo) [Example 1099, 2-(4-chlorophenyl)-N-[(cis-4-{[4-(dimethylamino)quinazolin-2-yl]amino}cyclohexyl)methyl]-2-hydroxyacetamide]",> 200 nM
4,"CN(C)c1nc(N[C@H]2CC[C@@H](NC(=O)C(O)c3cccc(F)c3F)CC2)nc2ccccc12 (relative stereo) [Example 1109, 2-(2,3-difluorophenyl)-N-(cis-4-{[4-(dimethylamino)quinazolin-2-yl]amino}cyclohexyl)-2-hydroxyacetamide]",> 200 nM
5,"CN(C)c1nc(N[C@H]2CC[C@@H](NC(=O)C(O)c3c(F)cccc3F)CC2)nc2ccccc12 (relative stereo) [Example 1110, 2-(2,6-difluorophenyl)-N-(cis-4-{[4-(dimethylamino)quinazolin-2-yl]amino}cyclohexyl)-2-hydroxyacetamide]",> 200 nM

# Results, then the compound that gave them:
row,IC50,Compound
1,50 to 200 nM,"CC(NC(=O)[C@H]1CC[C@@H](Nc2nc(N(C)C)c3cc(F)c(F)cc3n2)CC1)c1ccc(Br)cc1 (relative stereo) [Example 1008, cis-N-[1-(4-bromophenyl)ethyl]-4-{[4-(dimethylamino)-6,7-difluoroquinazolin-2-yl]amino}cyclohexanecarboxamide]"
2,> 200 nM,"CN(C)c1nc(N[C@H]2CC[C@@H](CNC(=O)C(O)c3c(F)cccc3F)CC2)nc2ccccc12 (relative stereo) [Example 1092, 2-(2,6-difluorophenyl)-N-[(cis-4-{[4-(dimethylamino)quinazolin-2-yl]amino}cyclohexyl)methyl]-2-hydroxyacetamide]"
3,> 200 nM,"CN(C)c1nc(N[C@H]2CC[C@@H](CNC(=O)C(O)c3cccc(F)c3F)CC2)nc2ccccc12 (relative stereo) [Example 1093, 2-(2,3-difluorophenyl)-N-[(cis-4-{[4-(dimethylamino)quinazolin-2-yl]amino}cyclohexyl)methyl]-2-hydroxyacetamide]"
4,> 200 nM,"CN(C)c1nc(N[C@H]2CC[C@@H](CNC(=O)C(O)c3cc(F)ccc3F)CC2)nc2ccccc12 (relative stereo) [Example 1094, 2-(2,5-difluorophenyl)-N-[(cis-4-{[4-(dimethylamino)quinazolin-2-yl]amino}cyclohexyl)methyl]-2-hydroxyacetamide]"
5,50 to 200 nM,"COc1ccc(C(O)C(=O)NC[C@H]2CC[C@@H](Nc3nc(N(C)C)c4ccccc4n3)CC2)cc1 (relative stereo) [Example 1096, N-[(cis-4-{[4-(dimethylamino)quinazolin-2-yl]amino}-cyclohexyl)-methyl]-2-hydroxy-2-(4-methoxyphenyl)acetamide]"
6,50 to 200 nM,"CN(C)c1nc(N[C@H]2CC[C@@H](CNC(=O)C(O)c3cccc(C(F)(F)F)c3)CC2)nc2ccccc12 (relative stereo) [Example 1104, N-[(cis-4-{[4-(dimethylamino)quinazolin-2-yl]amino}-cyclohexyl)-methyl]-2-hydroxy-2-[3-(trifluoromethyl)phenyl]-acetamide]"
7,< 50 nM,"COc1ccc(C(O)C(=O)N[C@H]2CC[C@@H](Nc3nc(N(C)C)c4ccccc4n3)CC2)cc1 (relative stereo) [Example 1105, N-(cis-4-{[4-(dimethylamino)quinazolin-2-yl]amino}cyclohexyl)-2-hydroxy-2-(4-methoxyphenyl)acetamide]"
8,50 to 200 nM,"CN(C)c1nc(N[C@H]2CC[C@@H](NC(=O)C(O)c3ccc(Cl)cc3)CC2)nc2ccccc12 (relative stereo) [Example 1106, 2-(4-chlorophenyl)-N-(cis-4-{[4-(dimethylamino)quinazolin-2-yl]amino}cyclohexyl)-2-hydroxyacetamide]"
9,50 to 200 nM,"CN(C)c1nc(N[C@H]2CC[C@@H](NC(=O)C(O)c3ccc(Br)cc3)CC2)nc2ccccc12 (relative stereo) [Example 1107, 2-(4-bromophenyl)-N-(cis-4-{[4-(dimethylamino)quinazolin-2-yl]amino}cyclohexyl)-2-hydroxyacetamide]"
10,50 to 200 nM,"CN(C)c1nc(N[C@H]2CC[C@@H](NC(=O)C(O)c3ccc(F)c(F)c3)CC2)nc2ccccc12 (relative stereo) [Example 1108, 2-(3,4-difluorophenyl)-N-(cis-4-{[4-(dimethylamino)quinazolin-2-yl]amino}cyclohexyl)-2-hydroxyacetamide]"
11,< 50 nM,"CN(C)c1nc(N[C@H]2CC[C@@H](NC(=O)C(O)c3cccc(C(F)(F)F)c3)CC2)nc2ccccc12 (relative stereo) [Example 1112, N-(cis-4-{[4-(dimethylamino)quinazolin-2-yl]amino}cyclohexyl)-2-hydroxy-2-[3-(trifluoromethyl)phenyl]acetamide]"
12,< 50 nM,"COc1cccc(C(O)C(=O)N[C@H]2CC[C@@H](Nc3nc(N(C)C)c4ccccc4n3)CC2)c1 (relative stereo) [Example 1113, N-(cis-4-{[4-(dimethylamino)quinazolin-2-yl]amino}cyclohexyl)-2-hydroxy-2-(3-methoxyphenyl)acetamide]"
13,50 to 200 nM,"CN(C)c1nc(N[C@H]2CC[C@@H](NC(=O)C(O)c3cc(F)ccc3F)CC2)nc2ccccc12 (relative stereo) [Example 1115, 2-(2,5-difluorophenyl)-N-(cis-4-{[4-(dimethylamino)quinazolin-2-yl]amino}cyclohexyl)-2-hydroxyacetamide]"
14,< 50 nM,"CC(NC(=O)[C@H]1CC[C@@H](Nc2nc(N(C)C)c3ccccc3n2)CC1)c1ccc(F)cc1 (relative stereo) [Example 1138, cis-4-{[4-(dimethylamino)quinazolin-2-yl]amino}-N-[1-(4-fluorophenyl)ethyl]cyclohexanecarboxamide]"
15,< 50 nM,"CC(NC(=O)[C@H]1CC[C@@H](Nc2nc(N(C)C)c3ccccc3n2)CC1)c1ccc(Br)cc1 (relative stereo) [Example 1140, cis-N-[1-(4-bromophenyl)ethyl]-4-{[4-(dimethylamino)quinazolin-2-yl]amino}cyclohexanecarboxamide]"
